How the values were obtained:
Type in all cases: cell-based
[1] = system: human sebaceous glands; test: Total lipid content of micro-dissected ex vivo human sebaceous glands (organ culture); conditions: extract 0.3 ppm, Capsaicin 5 μM (=1.5 ppm), lipids normalized to proteins
Description: Organ culture of human sebaceous glands micro-dissected from human skin explants was performed to evaluate the modulatory activity of Tetraselmis suecica extract prepared according to the description given in Example 1 on the sebum level. The extract is employed in the dried form. After removal of the epidermis of the full thickness skin sample, the sebaceous glands were carefully removed using micro-scissors and scalpel. The micro-dissected sebaceous glands were then pooled in groups of 8 and cultured up to day 6 in a 24 well plate immersed in 500 μl of modified Williams' E medium. After 24 hours of acclimation the culture medium was changed and substituted with the medium containing the extract to be tested. The medium was renewed at day 3 and 5 of culture. At day 6 the glands were collected and used for the quantification of lipids and proteins. […] To do so, each sebaceous glands group was homogenized in 100 μl of isopropyl alcohol to extract lipids and let the proteins undissolved. After centrifugation the supernatant containing the extracted sebum was collected and analyzed. The remaining pellet was dried using a vacuum dry evaporator and then minced in presence of 50 μl of protein lysis buffer. After an appropriate incubation time, this extractive mixture was centrifuged, and the supernatant was collected and analyzed. The lipids dissolved in isopropyl alcohol and the proteins dissolved in the lysis buffer were quantified by infrared spectroscopy using a Direct Detect IR Spectrometer (Millipore). The total lipid amount was obtained by normalizing the quantified lipids upon the quantified proteins (i.e. mg of lipids/mg of proteins). The amounts of normalized lipids, i.e. the sebum produced by each group of sebaceous glands, obtained from the treated groups was compared to that of the untreated control group and the modulatory activity was calculated in percentage. […] For statistical analysis, differences among groups were evaluated by one-way anova with permutation test followed by Dunnett's permutation test. […]

[2] = system: human sebaceous glands; test: Viability test (resazurin) of micro-dissected human sebaceous glands
Description: To better understand the response to the extract, a viability test was performed in parallel at day 1 and day 6 of organ culture. Resazurin was added to the wells (1:11) and let incubate for 2 hours. At the end of the incubation an aliquot of the medium was read with a fluorometer (excitation: 560 nm, emission: 590 nm). The medium was then replaced with normal medium for 2 hours in order to eliminate residual resazurin. After this the medium was replaced again with medium containing the test samples. The viability in each well was measured as the difference in percentage between day 6 and day 1.
The same experimental set-up as described in Example 3 was used to evaluate the combination of Tetraselmis suecica extract and niacinamide for synergistic activity.

[3] = system: human sebaceous glands; test: Synergistic effect of Tetraselmis suecica extract and niacinamide on total lipid content of ex vivo human sebaceous glands (Kull's equation); conditions: Donor 1 (Example 4); 0.3 ppm extract, 100 ppm niacinamide, or 0.15 ppm extract + 50 ppm niacinamide
Description: Kull's equation for calculation of the synergism index SI was used:
A=lipid reduction by Tetraselmis suecica extract at concentration x B=lipid reduction by niacinamide at concentration y C=lipid reduction by the combination of Tetraselmis suecica extract at concentration x/2 and niacinamide at concentration y/2 D=Factor for Tetraselmis suecica extract=>0.5 (due to half concentration tested in the combination) E=Factor for niacinamide=>0.5 (due to half concentration tested in the combination) A SI=1 is obtained for additive activity of the two combined components, whereas a SI<1 proves antagonistic activity (observed efficacy is lower than additive) and SI>1 proves synergistic activity (observed efficacy is higher than additive).

Row | SMILES | Reduction of lipids at day 6 versus untreated ([1]; Donor 1) [%] | Reduction of lipids at day 6 versus untreated ([1]; Donor 2) [%] | Reduction of lipids at day 6 versus untreated ([1]; Donor 3) [%] | Viability ([2]; Donor 1, day 6 versus day 1, extract 0.3 ppm, Capsaicin 5 μM (1.5 ppm), untreated 93) [%] | Viability ([2]; Donor 2, day 6 versus day 1, extract 0.3 ppm, Capsaicin 5 μM (1.5 ppm), untreated 100) [%] | Viability ([2]; Donor 3, day 6 versus day 1, extract 0.3 ppm, Capsaicin 5 μM (1.5 ppm), untreated 81) [%] | Viability ([2]; Donor 1 (Example 4), 0.3 ppm extract, 100 ppm niacinamide, or 0.15 ppm extract + 50 ppm niacinamide, untreated 81) [%] | Reduction of lipids at day 6 versus untreated [3] [%]
1 | COc1cc(CNC(=O)CCCC/C=C/C(C)C)ccc1O [Capsaicin] | 11 | 28 | 14 | 92 | 99 | 85 |  | 
2 | NC(=O)c1cccnc1 [niacinamide, Niacinamide] |  |  |  |  |  |  | 78 | 6

Source: US20220175859A1, “Tetraselmis Extract” (SYMRISE AG, priority 2018, published 2022)
